The results in this text go back to US6579989B1, “Sulphostin analogue and process for producing sulphostin and its analogue” (Zaidan Hojin Biseibutsu Kagaku Kenkyu Kai, priority 1999, dated 2003).

The assay addresses T1, dipeptidylpeptidase IV (Rattus norvegicus, UniProt P14740).
T1 construct: partially purified through ammonium sulfate fractionation of a homogenate obtained from a kidney of a rat; from tissue; host or cells: rat kidney homogenate
Put plainly: Measurement of dipeptidylpeptidase IV inhibiting activity (glycyl prolyl β-naphthylamide substrate, absorbance at 525 nm). The note with it: IC50 (dipeptidylpeptidase IV inhibition activity), enzyme partially purified from rat kidney homogenate; pH 7.2, 37° C., 1 hour. It counts as biochemical. The procedure: Measurement of Dipeptidylpeptidase IV Inhibiting Activity
Water was added to a mixture of 0.025 ml of 3.2 mM glycyl prolyl β-naphthylamide (BACHEM, Switzerland), 0.1 ml of 0.1 M tris-maleic acid buffer solution (pH 7.2) and a compound shown in Table 1, so that a final volume was adjusted to 0.2 ml. The resulting mixed solution was warmed at 37° C. for 10 minutes, and 0.025 ml of a dipeptidylpeptidase IV solution partially purified through ammonium sulfate fractionation of a homogenate obtained from a kidney of a rat was added thereto. Then, the reaction was continued at 37° C. for 1 hour. […] At the same time, a blank test was conducted to measure absorbance (b) of the buffer solution containing no specimen. A dipeptidylpeptidase IV inhibition percent was calculated from the expression: [(b−a)/b]×100.

T1 sequence (P14740 whole entry): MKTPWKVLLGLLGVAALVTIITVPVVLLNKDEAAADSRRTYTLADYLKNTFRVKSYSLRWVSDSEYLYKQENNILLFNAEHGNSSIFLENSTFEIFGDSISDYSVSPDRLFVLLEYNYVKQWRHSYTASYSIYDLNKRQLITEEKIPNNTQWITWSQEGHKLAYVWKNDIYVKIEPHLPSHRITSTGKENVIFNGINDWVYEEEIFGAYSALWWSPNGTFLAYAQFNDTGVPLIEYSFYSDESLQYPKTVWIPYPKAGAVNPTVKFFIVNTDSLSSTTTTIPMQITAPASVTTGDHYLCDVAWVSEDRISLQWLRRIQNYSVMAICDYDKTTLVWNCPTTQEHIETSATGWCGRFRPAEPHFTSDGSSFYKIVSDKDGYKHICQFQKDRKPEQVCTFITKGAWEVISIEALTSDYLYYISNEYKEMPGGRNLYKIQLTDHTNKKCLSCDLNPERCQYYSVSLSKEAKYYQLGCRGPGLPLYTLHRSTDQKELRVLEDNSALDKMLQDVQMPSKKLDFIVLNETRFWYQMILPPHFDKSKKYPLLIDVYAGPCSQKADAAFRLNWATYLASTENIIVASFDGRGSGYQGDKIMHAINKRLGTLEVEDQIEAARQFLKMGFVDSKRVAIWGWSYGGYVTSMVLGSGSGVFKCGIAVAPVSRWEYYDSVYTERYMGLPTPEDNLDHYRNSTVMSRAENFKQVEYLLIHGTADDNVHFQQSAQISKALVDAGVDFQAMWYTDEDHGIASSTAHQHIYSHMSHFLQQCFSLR

Take `N[C@H]1CCN(P(N)(=O)NS(=O)(=O)O)C1=O` (single isomer, unassigned) [Compound 20, 3(S)-Amino-1-((S*)-amino(sulfoamino)phosphinyl)-2-pyrrolidone]: the IC50 (usually the concentration at which inhibition is half-maximal) was 1820 nM.

`N[C@H]1CCN(P(N)(=O)NS(=O)(=O)O)C1=O` (single isomer, unassigned) [Compound 21, 3(S)-Amino-1-((R*)-amino(sulfoamino)phosphinyl)-2-pyrrolidone] had an IC50 of 15.1 nM.
